Reference: EP0983768A1, “MEDICINAL COMPOSITION FOR PREVENTION OR TREATMENT OF HEPATOPATHY” (Nippon Shinyaku Co., Ltd., priority 1997, dated 1998)
Marks after values point to notes of the source that are not given here.

How the values were obtained:
[1] = system: concanavalin A-induced hepatic damage in mice; test: Inhibitory effect on concanavalin A-induced hepatic damage (plasma transaminase activities GOT, GPT); format: in vivo; details: male BALB/c mice; for Inhibition rate (%) i.p. GOT / Inhibition rate (%) p.o. GOT: plasma GOT 24 hours after con A; for Inhibition rate (%) i.p. GPT / Inhibition rate (%) p.o. GPT: plasma GPT 24 hours after con A
Description: The hepatic damage inhibitory effect of the adenosine A2 receptor agonist of the invention can be verified by a test using mice as described below. Among the various animal models proposed for the evaluation of hepatic damage inhibitory activity, the disease model used in this test resembles human hepatitis in the mechanism of onset. Using 6-weeks old male BALB/c mice in groups of 17-20, the test drug was administered intraperitoneally or orally. At 30 minutes after intraperitoneal administration of the test drug or 1 hour after oral administration, 0.6 mg of concanavalin A (con A) was administered intravenously to each animal to induce hepatic damage. At 24 hours after administration of con A, plasma transaminase activities [GOT (glutamic-oxaloacetic transaminase), GPT (glutamic-pyruvic transaminase)] were determined. The plasma transaminase activity inhibition rate in each group given a test drug relative to the control group was calculated by means of the following equation. Inhibition rate (%) = [(C-D)/C] × 100 [formula] where C represents the mean value of plasma transaminase activity in the control group and D represents the mean value of plasma transaminase activity in the group given a test drug.

ICR mice = details: 1000 mg/kg orally, 7-8 weeks old; cited from earlier work
[2] = 0.3 mg/kg i.p. 30 minutes before con A
[3] = 3 mg/kg i.p. 30 minutes before con A
[4] = 3 mg/kg p.o. 1 hour before con A
[5] = 1 mg/kg i.p. 30 minutes before con A
[6] = 1 mg/kg p.o. 1 hour before con A

SMILES | Inhibition rate (%) i.p. GOT [1, 2] | Inhibition rate (%) i.p. GPT [1, 2] | Inhibition rate (%) i.p. GOT [1, 3] | Inhibition rate (%) i.p. GPT [1, 3] | Inhibition rate (%) p.o. GOT [1, 4] | Inhibition rate (%) p.o. GPT [1, 4] | Inhibition rate (%) i.p. GOT [1, 5] | Inhibition rate (%) i.p. GPT [1, 5] | Inhibition rate (%) p.o. GOT [1, 6] | Inhibition rate (%) p.o. GPT [1, 6] | death (ICR mice)
CCNC(=O)[C@H]1O[C@@H](n2cnc3c(N)nc(NCCc4ccc(CCC(=O)O)cc4)nc32)[C@H](O)[C@@H]1O [Compound 1, 1-[6-amino-2-[(2-(4-(2-carboxyethyl)phenyl)-ethyl)amino]-9H-purin-9-yl]-1-deoxy-N-ethyl-β-D-ribofuranuronamide] | 85** % | 88** % | 93** % | 98** % | 64* % | 58* % | – | – | – | – | –
Nc1nc(Nc2ccccc2)nc2c1ncn2[C@@H]1O[C@H](CO)[C@@H](O)[C@H]1O [Compound 2, 2-(phenylamino)adenosine] | 61** % | 65** % | – | – | – | – | 81** % | 91** % | – | – | –
COc1cc(OC)cc(C(CNc2ncnc3c2ncn3[C@@H]2O[C@H](CO)[C@@H](O)[C@H]2O)c2ccccc2C)c1 (stereo partly shown) [Compound 3, N^6-[2-(3,5-dimethoxyphenyl)-2-(2-methylphenyl)ethyl]adenosine] | 61** % | 60** % | 83** % | 87** % | 86** % | 88** % | – | – | – | – | –
Nc1ncnc2c1ncn2[C@@H]1O[C@H](C(=O)NC2CC2)[C@@H](O)[C@H]1O [Compound 4, 1-(6-amino-9H-purin-9-yl)-1-deoxy-N-cyclopropyl-β-D-ribofuranuronamide] | – | – | – | – | – | – | – | – | 49** % | 56** % | –
CCCCCCC#Cc1nc(N)c2ncn([C@@H]3O[C@H](CO)[C@@H](O)[C@H]3O)c2n1 [Compound 5, 2-(1-octyn-1-yl)adenosine] | 90** % | 96** % | 91** % | 96** % | 93** % | 97** % | – | – | – | – | no death was encountered
